Source: EP4782453A1 (Beyang Therapeutics Co., Ltd., priority 2023, dated 2025)
Like-named read-outs stand apart in the source and are kept apart here.

Assays:
Menin-MLL = target: T1, Menin-MLL (Homo sapiens, UniProt O00255); experiment: Inhibitory activity against Menin-MLL binding (fluorescence polarization); details: 150 nM His-Menin, 15 nM FITC-MLL, 25°C for 60 min
T1 construct: His-Menin (M1-L615 end); purchased BIORTUS BP9210
T1 sequence (O00255 1-615 isoform O00255-1): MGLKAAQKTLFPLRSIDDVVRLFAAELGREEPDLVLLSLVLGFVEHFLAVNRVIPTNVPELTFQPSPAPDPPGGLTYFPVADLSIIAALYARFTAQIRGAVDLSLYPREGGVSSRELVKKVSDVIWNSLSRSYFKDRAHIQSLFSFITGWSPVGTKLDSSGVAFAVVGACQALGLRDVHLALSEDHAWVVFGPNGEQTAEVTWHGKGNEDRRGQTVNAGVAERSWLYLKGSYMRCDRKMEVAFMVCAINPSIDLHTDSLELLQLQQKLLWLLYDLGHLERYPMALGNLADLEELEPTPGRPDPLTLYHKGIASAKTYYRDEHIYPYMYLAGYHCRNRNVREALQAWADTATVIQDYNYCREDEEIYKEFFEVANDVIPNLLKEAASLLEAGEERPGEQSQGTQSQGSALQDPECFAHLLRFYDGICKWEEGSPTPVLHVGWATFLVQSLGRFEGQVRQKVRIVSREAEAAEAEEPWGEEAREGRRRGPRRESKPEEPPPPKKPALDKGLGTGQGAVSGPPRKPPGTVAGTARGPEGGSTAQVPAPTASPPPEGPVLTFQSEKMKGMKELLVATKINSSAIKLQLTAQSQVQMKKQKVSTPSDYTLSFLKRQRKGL
Outline: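 Fluorescence polarization competition: compound and 150 nM His-tagged menin (residues M1-L615) sit 15 min at 25 °C in pH 7.5 HEPES buffer with NaCl, DTT and BSA; 15 nM FITC-labelled MLL peptide then binds for 60 min. IC50 fitted sigmoidally from mP values, duplicate wells.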

KG-1a (wild-type MLL) = experiment: Inhibition of proliferation of human tumor cells (Alamar Blue, 7 days), KG-1a control cell line; assay type: cell-based; details: 168 h, KG-1a cells (wild-type MLL, control cell line), method calls the value GI50
Outline: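 GI50 values reflect growth inhibition over 7 days, read by Alamar Blue. Seeding density was 4,000 cells/well except KG-1a (3,000 cells/well); each line grew in its own FBS-containing medium at 37°C.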

[1] = fluorescence polarization, read-out: Menin-MLL IC50
[2] = Menin-MLL IC50, fluorescence polarization

| Structure (SMILES) | IC50 (Menin-MLL; [1]) | IC50 (KG-1a (wild-type MLL)) | IC50 (Menin-MLL; [2]) |
| --- | --- | --- | --- |
| CCN(C(=O)c1cc(F)ccc1-c1cc(C2(F)CN(C(=O)C3NC4CCC3CC4)C2)cn2c(C)ncc12)C(C)C [Example 75, N-ethyl-5-fluoro-2-(6-{3-fluoro-1-[(1R,3S,4S)-2-azabicyclo[2.2.2]octan-3-carbonyl]azacyclobutan-3-yl}-3-methylimidazo[1,5-a]pyridin-8-yl)-N-(isopropyl) benzamide] |  | 20000 nM | 17.5 nM |
| COCCN(C)CCCC(C(C)C)N1CC(c2cc(-c3ccc(F)cc3C(=O)N3CCOCC3C)c3cnn(C)c3c2)C1 (centres unmarked) [Example 185] | 14.5 nM | 20000 nM |  |
| CC(=O)N1CCC([C@H](C)N2CC(c3cc(-c4ccc(F)cc4C(=O)N4CCOC[C@H]4C)c4c(F)nc(C)n4c3)C2)CC1 [Example 257-2, 1-{4-[(1S)-1-[3-(1-fluoro-8-{4-fluoro-2-[(3R)-3-methylmorpholin-4-carbonyl]phenyl}-3-methylimidazo[1,5-a]pyridin-6-yl)azacyclobutan-1-yl]ethyl]piperidin-1-yl}ethan-1-one] | 13.8 nM | 20000 nM |  |
| CO[C@H]1CCCN(CCC[C@H](C(C)C)N2CC(c3cc(-c4ccc(F)cc4C(=O)N4CCOC[C@H]4C)c4c(F)nc(C)n4c3)C2)C1 [Example 306] | 6.5 nM | 20000 nM |  |
| CCNC(=O)N1CCC(CN2CC(c3cc(-c4ccc(F)cc4C(=O)N4CCOC[C@H]4C)c4c(F)nc(C)n4c3)C2)CC1 [Example 261] | 8.5 nM | 20000 nM |  |
| CNC(=O)N1CCC([C@H](C)N2CC(c3cc(-c4ccc(F)cc4C(=O)N4CCOC[C@H]4C)c4c(F)nc(C)n4c3)C2)CC1 [Example 264-2] | 6 nM | 20000 nM |  |
| COCCN(C)CCCC(C(C)C)N1CC(c2cc(-c3ccc(F)cc3C(=O)N(CC(F)F)C(C)C)c3c(F)nc(C)n3c2)C1 (centres unmarked) [Example 142, N-(2,2-difluoroethyl)-5-fluoro-2-[1-fluoro-6-(1-{6-[(2-methoxyethyl)(methyl)amino]-2-methylhexan-3-yl}azacyclobutan-3-yl)-3-methylimidazo[1,5-a]pyridin-8-yl]-N-(isopropyl)benzamide] | 10 nM | 3600 nM |  |
| CCS(=O)(=O)N[C@H]1CC[C@H](CN2CC(c3cc(-c4ccc(F)cc4C(=O)N4CCOC[C@H]4C)c4cnc(C)n4c3)C2)CC1 [Example 134, N-[(1r,4r)-4-{[3-(8-{4-fluoro-2-[(3R)-3-methylmorpholin-4-carbonyl]phenyl}-3-methylimidazo[1,5-a]pyridin-6-yl)azacyclobutan-1-yl]methyl}cyclohexyl]ethan-1-sulfonamide] |  | 20000 nM | 17.5 nM |

More lines, in order of falling IC50 (Menin-MLL; [1]), values ahead:

| IC50 (Menin-MLL; [1]) | IC50 (KG-1a (wild-type MLL)) | Structure (SMILES) | IC50 (Menin-MLL; [2]) |
| --- | --- | --- | --- |
| 6 nM | 20000 nM | CCS(=O)(=O)N[C@H]1CC[C@H](CN2CC(c3cc(-c4ccc(F)cc4C(=O)N(CC(F)F)C(C)C)c4cnc(C)n4c3)C2)CC1 [Example 138] |  |
| 6 nM | 7400 nM | CCN(C(=O)c1cc(F)ccc1-c1cc(C2CCN(Cc3ccc(-c4cc(OC)c(OC)nn4)cc3)C2)cn2c(C)ncc12)C(C)C (centres unmarked) [Example 83] |  |
| 4.8 nM | > 20000 nM | Cc1nc(F)c2c(-c3ccc(F)cc3C(=O)N3CCOC[C@H]3C)cc(C3CN(C(CC[C@@H]4COCCN4)C(C)C)C3)cn12 (stereo partly drawn) [Example 371, (3R)-4-{5-fluoro-2-[1-fluoro-3-methyl-6-(1-{4-methyl-1-[(3R)-morpholin-3-yl]pentan-3-yl}azacyclobutan-3-yl)imidazo[1,5-a]pyridin-8-yl]benzoyl}-3-methylmorpholine] |  |
| 4.8 nM | 18000 nM | COC1CCN(CCC[C@H](C(C)C)N2CC(c3cc(-c4ccc(F)cc4C(=O)N4CCOC[C@H]4C)c4c(F)nc(C)n4c3)C2)CC1 [Example 204, (3R)-4-[5-fluoro-2-(1-fluoro-6-{1-[(3R)-6-(4-methoxypiperidin-1-yl)-2-methylhexan-3-yl]azacyclobutan-3-yl}-3-methylimidazo[1,5-a]pyridin-8-yl)benzoyl]-3-methylmorpholine] |  |
| 3.3 nM | 12000 nM | Cc1nc(F)c2c(-c3ccc(F)cc3C(=O)N3CCOC[C@H]3C)cc(C3CN([C@H](CCCN4CCN(C5CC5)CC4)C(C)C)C3)cn12 [Example 350] |  |
| 3.2 nM | 20000 nM | Cc1nc(F)c2c(-c3ccc(F)cc3C(=O)N3CCOC[C@H]3C)cc(C3CN([C@H](CCCN4CCN(C)CC4)C(C)C)C3)cn12 [Example 275, (3R)-4-[5-fluoro-2-(1-fluoro-3-methyl-6-{1-[(3R)-2-methyl-6-(4-methylpiperazin-1-yl)hexan-3-yl]azacyclobutan-3-yl}imidazo[1,5-a]pyridin-8-yl)benzoyl]-3-methylmorpholine] |  |
| 3.1 nM | 20000 nM | Cc1nc(F)c2c(-c3ccc(F)cc3C(=O)N3CCOC[C@H]3C)cc(C3CN([C@H](CCCN4CCC[C@H](O)C4)C(C)C)C3)cn12 [Example 293] |  |
| 1.9 nM | > 20000 nM | CCN(C(=O)c1cc(F)ccc1-c1cc(C2CN([C@H](CCCN3CCN(CCO)CC3)C(C)C)C2)cn2c(C)ncc12)C(C)C [Example 398, N-ethyl-5-fluoro-2-(6-{1-[(3R)-6-[4-(2-hydroxyethyl)piperazin-1-yl]-2-methylhexan-3-yl]azacyclobutan-3-yl}-3-methylimidazo[1,5-a]pyridin-8-yl)-N-(isopropyl)benzamide] |  |
